Reference: patent publication US20260022116A1, “IMIDAZOPYRIDINE COMPOUNDS, PREPARATION THEREOF AND THERAPEUTIC USES THEREOF” (SANOFI, priority 2022, published 2026)
Counter-ions that a name gives are not always drawn.

Legend:
[1] = target: T1, ERK5 (Homo sapiens, UniProt Q13164); experiment: biochemical
Target sequence in this assay (Q13164 55-347 limits assumed): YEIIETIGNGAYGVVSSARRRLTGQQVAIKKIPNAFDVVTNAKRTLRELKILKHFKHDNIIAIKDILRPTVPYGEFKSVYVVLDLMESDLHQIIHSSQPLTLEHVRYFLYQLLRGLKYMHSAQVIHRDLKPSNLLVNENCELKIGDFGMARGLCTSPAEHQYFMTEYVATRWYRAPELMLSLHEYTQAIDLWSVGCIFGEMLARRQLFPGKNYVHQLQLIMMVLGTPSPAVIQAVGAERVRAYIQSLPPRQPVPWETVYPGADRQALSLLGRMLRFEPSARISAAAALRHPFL
Method: (§1) Two assays were performed to assess the ERK5 inhibitory activity of compounds of the Examples, a cell-based assay and a cell-free biochemical assay.
An assay was performed to measure the capacity of each compound to inhibit ERK5 enzymatic activity. Compound potency was evaluated by Time-Resolved Forster Resonance Energy Transfer (FRET system). […] A mixture of 1 mM ATP and 1 μM biotinylated synthetic peptide was added (Biosyntan GmbH). This synthetic peptide represents amino acids 30-52 of Eukaryotic translation initiation factor 4E-binding protein 1 (see, e.g., the sequence under accession No. NP_004086.1) biotinylated at the N-terminus.

[2] = target: T1, ERK5; experiment: cell-based
Target sequence in this assay (Q13164 whole entry): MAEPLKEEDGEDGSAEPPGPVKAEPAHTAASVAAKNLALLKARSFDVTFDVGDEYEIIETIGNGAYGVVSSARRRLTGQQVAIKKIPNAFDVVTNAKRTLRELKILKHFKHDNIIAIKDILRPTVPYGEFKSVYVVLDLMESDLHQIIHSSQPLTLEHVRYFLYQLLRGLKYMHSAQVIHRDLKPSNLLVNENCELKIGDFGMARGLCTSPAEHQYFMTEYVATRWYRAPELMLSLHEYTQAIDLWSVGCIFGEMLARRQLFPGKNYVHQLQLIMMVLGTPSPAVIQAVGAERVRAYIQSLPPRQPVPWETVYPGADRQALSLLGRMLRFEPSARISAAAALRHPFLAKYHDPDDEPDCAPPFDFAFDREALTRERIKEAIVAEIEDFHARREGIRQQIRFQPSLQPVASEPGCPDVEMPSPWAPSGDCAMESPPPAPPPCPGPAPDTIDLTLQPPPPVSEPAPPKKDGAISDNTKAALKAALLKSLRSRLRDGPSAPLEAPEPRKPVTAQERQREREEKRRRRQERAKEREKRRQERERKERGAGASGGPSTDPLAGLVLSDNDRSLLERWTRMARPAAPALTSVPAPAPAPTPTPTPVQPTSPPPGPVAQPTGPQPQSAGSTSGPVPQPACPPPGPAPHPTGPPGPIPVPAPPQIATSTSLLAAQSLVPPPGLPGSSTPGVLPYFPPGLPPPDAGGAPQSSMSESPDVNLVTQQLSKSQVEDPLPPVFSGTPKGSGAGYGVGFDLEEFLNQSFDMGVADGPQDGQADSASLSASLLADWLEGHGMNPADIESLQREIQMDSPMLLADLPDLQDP
Method: as §1
The renal cancer cell line SN12C was transduced by a lentivirus pGreenFire1 MEF2 EF1 Neo (ref TR030VA-N) from SBI using standard infection protocol. pGreenFire1 MEF2 EF1 Neo allows the expression of luciferase gene under the control of minimal promoter with MEF2 transcriptional response elements. Cells harboring the reporter construct were selected by geneticin treatment. The selected cells were then transposed by a piggyback based plasmid pCM4007 allowing the expression of constitutively activated MEK5DD under control of TREG3 promoter, a doxycycline regulated promoter. Transposed cells were selected by puromycin treatment. Upon doxycycline treatment (1 μg/ml) MEK5DD was expressed. MEK5DD activates ERK5 that phosphorylates MEF2C protein. Activated MEF2C protein can bind to its transcriptional response elements. Then the luciferase is expressed. In a 96-well plate (96F nuncleon ref137101 thermofisher), 50,000 cells were inoculated in 142.5 μl of RPMI medium containing 10% fetal calf serum, 1% glutamine, and 1 μg/ml doxycycline. […] The luciferase activity was measured using the Kit Bright Glo Luminescent Cell Assay Cat E2610 (Promega) according to the manufacturer's protocol. Luminescence was determined using 0.2 second reading/well using a Tecan SPARK. IC50 values were calculated using XLFIT5 for Microsoft Excel using method 205.

IC50 [1] [nM]	IC50 [2] [nM]	SMILES
385		Nc1cc(S(F)(F)(F)(F)F)ccc1C(=O)N1CCC(c2c(F)cnc3[nH]c(C4CCCO4)nc23)CC1 (racemic) [Example 383, (rac)-[2-amino-4-(pentafluoro-λ^6-sulfanyl)phenyl]-[4-(6-fluoro-2-tetrahydrofuran-2-yl-3H-imidazo[4,5-b]pyridin-7-yl)-1-piperidyl]methanone]
6460		O=C(c1ccc(S(F)(F)(F)(F)F)cc1)N1CCC(c2c(F)cnc3[nH]c(C4CN(C(=O)O)C5COCC5O4)nc23)CC1 (racemic) [Example 455, (rac)-2-[6-fluoro-7-[1-[4-(pentafluoro-λ^6-sulfanyl)benzoyl]-4-piperidyl]-3H-imidazo[4,5-b]pyridin-2-yl]-2,3,4a,5,7,7a-hexahydrofuro[3,4-b][1,4]oxazine-4-carboxylic acid]
244		O=C(c1ccc(OC(F)(F)F)cc1)N1CCC(c2c(F)cnc3[nH]c(C4CCC5(COC5)N(C(=O)O)C4)nc23)CC1 (racemic) [Example 461, (rac)-7-[6-fluoro-7-[1-[4-(trifluoromethoxy)benzoyl]-4-piperidyl]-3H-imidazo[4,5-b]pyridin-2-yl]-2-oxa-5-azaspiro[3.5]nonane-5-carboxylic acid]
	261	Nc1cc(OC(F)(F)F)ccc1C(=O)N1CCC(c2ccnc3[nH]c(C4CNCC(F)(F)C4)nc23)CC1 (single isomer, unassigned) [Example 162, [2-amino-4-(trifluoromethoxy)phenyl]-[4-[2-[5,5-difluoro-3-piperidyl]-3H-imidazo[4,5-b]pyridin-7-yl]-1-piperidyl]methanone]
	27	Nc1cc(OC(F)(F)F)ccc1C(=O)N1CCC(c2ccnc3[nH]c(C4CCOC4)nc23)CC1 (single isomer, unassigned) [Example 186, [2-amino-4-(trifluoromethoxy)phenyl]-[4-[2-[tetrahydrofuran-3-yl]-3H-imidazo[4,5-b]pyridin-7-yl]-1-piperidyl]methanone]
	41	Nc1cc(OC(F)(F)F)ccc1C(=O)N1CCC(c2ccnc3[nH]c(C4CCOC4)nc23)CC1 (single isomer, unassigned) [Example 187, [2-amino-4-(trifluoromethoxy)phenyl]-[4-[2-[tetrahydrofuran-3-yl]-3H-imidazo[4,5-b]pyridin-7-yl]-1-piperidyl]methanone]
	> 10000	COC12CC(C(=O)N3CCC(c4ccnc5[nH]c(C6CCOCC6)nc45)CC3)(C1)C2 [Example 58, (3-Methoxy-1-bicyclo[1.1.1]pentanyl)-[4-(2-tetrahydropyran-4-yl-3H-imidazo[4,5-b]pyridin-7-yl)-1-piperidyl]methanone]
	3600	O=C(c1n[nH]c2ccccc12)N1CCC(c2ccnc3[nH]c(C4CCOCC4)nc23)CC1 [Example 78, 1H-indazol-3-yl-[4-(2-tetrahydropyran-4-yl-3H-imidazo[4,5-b]pyridin-7-yl)-1-piperidyl]methanone]
	7890	O=C(c1cnn2c1NCCC2C(F)(F)F)N1CCC(c2ccnc3[nH]c(C4CCOCC4)nc23)CC1 (centres unmarked) [Example 79, [4-(2-tetrahydropyran-4-yl-3H-imidazo[4,5-b]pyridin-7-yl)-1-piperidyl]-[7-(trifluoromethyl)-4,5,6,7-tetrahydropyrazolo[1,5-a]pyrimidin-3-yl]methanone]
	> 10000	O=C(c1cccc(N2CCCS2(=O)=O)c1)N1CCC(c2ccnc3[nH]c(C4CCOCC4)nc23)CC1 [Example 85, [3-(1,1-dioxo-1,2-thiazolidin-2-yl)phenyl]-[4-(2-tetrahydropyran-4-yl-3H-imidazo[4,5-b]pyridin-7-yl)-1-piperidyl]methanone]
	> 10000	CC(Oc1ccc(C(F)(F)F)cc1Cl)C(=O)N1CCC(c2ccnc3[nH]c(C4CCOCC4)nc23)CC1 (centres unmarked) [Example 87, 2-[2-chloro-4-(trifluoromethyl)phenoxy]-1-[4-(2-tetrahydropyran-4-yl-3H-imidazo[4,5-b]pyridin-7-yl)-1-piperidyl]propan-1-one]
	3160	O=C(c1nn(-c2ccccc2C(F)(F)F)cc1O)N1CCC(c2ccnc3[nH]c(C4CCOCC4)nc23)CC1 [Example 89, [4-hydroxy-1-[2-(trifluoromethyl)phenyl]pyrazol-3-yl]-[4-(2-tetrahydropyran-4-yl-3H-imidazo[4,5-b]pyridin-7-yl)-1-piperidyl]methanone]
	2250	Nc1c(C(=O)N2CCC(c3ccnc4[nH]c(C5CCOCC5)nc34)CC2)sc(C(F)(F)F)c1-c1ccccc1 [Example 92, [3-amino-4-phenyl-5-(trifluoromethyl)-2-thienyl]-[4-(2-tetrahydropyran-4-yl-3H-imidazo[4,5-b]pyridin-7-yl)-1-piperidyl]methanone]
	> 10000	O=C(C1CC(=O)N(c2ccc(F)c(F)c2)C1)N1CCC(c2ccnc3[nH]c(C4CCOCC4)nc23)CC1 (centres unmarked) [Example 107, 1-(3,4-difluorophenyl)-4-[4-(2-tetrahydropyran-4-yl-3H-imidazo[4,5-b]pyridin-7-yl)piperidine-1-carbonyl]pyrrolidin-2-one]
	7940	Cc1cc2ncc(C(=O)N3CCC(c4ccnc5[nH]c(C6CCOCC6)nc45)CC3)c(N)n2n1 [Example 109, (7-amino-2-methyl-pyrazolo[1,5-a]pyrimidin-6-yl)-[4-(2-tetrahydropyran-4-yl-3H-imidazo[4,5-b]pyridin-7-yl)-1-piperidyl]methanone]
	> 10000	O=C1CC(C(=O)N2CCC(c3ccnc4[nH]c(C5CCOCC5)nc34)CC2)CN1Cc1ccccc1Cl (centres unmarked) [Example 110, 1-[(2-chlorophenyl)methyl]-4-[4-(2-tetrahydropyran-4-yl-3H-imidazo[4,5-b]pyridin-7-yl)piperidine-1-carbonyl]pyrrolidin-2-one]
	> 10000	O=C(C1CC(=O)N(c2ccc(F)cc2)C1)N1CCC(c2ccnc3[nH]c(C4CCOCC4)nc23)CC1 (centres unmarked) [Example 111, 1-(4-fluorophenyl)-4-[4-(2-tetrahydropyran-4-yl-3H-imidazo[4,5-b]pyridin-7-yl)piperidine-1-carbonyl]pyrrolidin-2-one]
	> 10000	CCn1cc(N)c(C(=O)N2CCC(c3ccnc4[nH]c(C5CCOCC5)nc34)CC2)n1 [Example 115, (4-amino-1-ethyl-pyrazol-3-yl)-[4-(2-tetrahydropyran-4-yl-3H-imidazo[4,5-b]pyridin-7-yl)-1-piperidyl]methanone]
	> 10000	O=C(C1CC12C(=O)Nc1ccccc12)N1CCC(c2ccnc3[nH]c(C4CCOCC4)nc23)CC1 (centres unmarked) [Example 117, 2-[4-(2-tetrahydropyran-4-yl-3H-imidazo[4,5-b]pyridin-7-yl)piperidine-1-carbonyl]spiro[cyclopropane-1,3′-indoline]-2′-one]
	> 10000	O=C(c1ccc(OC(F)(F)F)cc1)N1CCC(c2ccnc3[nH]c(-c4csc(-c5cc(Cl)ccc5O)n4)nc23)CC1 [Example 135, [4-[2-[2-(5-chloro-2-hydroxy-phenyl)thiazol-4-yl]-3H-imidazo[4,5-b]pyridin-7-yl]-1-piperidyl]-[4-(trifluoromethoxy)phenyl]methanone]
	3270	CCn1c(=O)c(=O)[nH]c2cc(-c3nc4c(C5CCN(C(=O)c6ccc(OC(F)(F)F)cc6)CC5)ccnc4[nH]3)ccc21 [Example 139, 1-ethyl-3-hydroxy-6-[7-[1-[4-(trifluoromethoxy)benzoyl]-4-piperidyl]-3H-imidazo[4,5-b]pyridin-2-yl]quinoxalin-2-one]
	195	CO[C@H]1CC[C@H](c2nc3c(C4CCN(C(=O)c5ccc(OC(F)(F)F)cc5)CC4)ccnc3[nH]2)CC1 [Example 153, (trans)-[4-(trifluoromethoxy)phenyl]-[4-[2-(4-methoxycyclohexyl)-3H-imidazo[4,5-b]pyridin-7-yl]-1-piperidyl]methanone;hydrochloride]
	> 10000	O=S(=O)(c1ccc(OC(F)(F)F)cc1)N1CCC(c2ccnc3[nH]c(C4CCOCC4)nc23)CC1 [Example 165, 2-tetrahydropyran-4-yl-7-[1-[4-(trifluoromethoxy)phenyl]sulfonyl-4-piperidyl]-3H-imidazo[4,5-b]pyridine]
	979	CC(C)(C)OC(=O)Nc1cc(OC(F)(F)F)ccc1C(=O)N1CCC(c2ccnc3[nH]c(C4CCOCC4)nc23)CC1 [Example 190, tert-butyl N-[2-[4-(2-tetrahydropyran-4-yl-3H-imidazo[4,5-b]pyridin-7-yl)piperidine-1-carbonyl]-5-(trifluoromethoxy)phenyl]carbamate]
	6480	O=C(c1ccc(OC(F)(F)F)cc1)N1CCC(c2ccnc3[nH]c(-c4cnc5ccc(C(F)(F)F)cc5c4O)nc23)CC1 [Example 230, [4-[2-[4-hydroxy-6-(trifluoromethyl)-3-quinolyl]-3H-imidazo[4,5-b]pyridin-7-yl]-1-piperidyl]-[4-(trifluoromethoxy)phenyl]methanone]
535		O=C(c1ccc(S(F)(F)(F)(F)F)cc1)N1CCC(c2c(F)cnc3[nH]c(C4CCN(C5CC5)CC4)nc23)CC1 [Example 431, [4-[2-(1-cyclopropyl-4-piperidyl)-6-fluoro-3H-imidazo[4,5-b]pyridin-7-yl]-1-piperidyl]-[4-(pentafluoro-λ^6-sulfanyl)phenyl]methanone]
487		O=C(c1ccc(S(F)(F)(F)(F)F)cc1)N1CCC(c2c(F)cnc3[nH]c([C@H]4C[C@@H](O)C4)nc23)CC1 [Example 446, (cis)-[4-[6-fluoro-2-(3-hydroxycyclobutyl)-3H-imidazo[4,5-b]pyridin-7-yl]-1-piperidyl]-[4-(pentafluoro-λ^6-sulfanyl)phenyl]methanone]
175		O=C(c1ccc(S(F)(F)(F)(F)F)cc1)N1CCC(c2c(F)cnc3[nH]c([C@H]4C[C@H](O)C4)nc23)CC1 [Example 448, (trans)-[4-[6-fluoro-2-(3-hydroxycyclobutyl)-3H-imidazo[4,5-b]pyridin-7-yl]-1-piperidyl]-[4-(pentafluoro-λ^6-sulfanyl)phenyl]methanone]
280		O=C(c1ccc(S(F)(F)(F)(F)F)cc1)N1CCC(c2c(F)cnc3[nH]c(N4CCOCC4)nc23)CC1 [Example 449]
